Patent US20030144355A1, “Stabilisation of pigments and polyunsaturated oils and oil concentrates” (priority 1999, published 2003)

Assays:
[1] = weight-gain oxidative stability test of treated fish oil (induction period), Example 2; assay type: physicochemical; conditions: for induction period (IP; time before rapid oxygen uptake): stored at about 35° C.
Description: The oxidative stability of oils can be compared by accelerated tests, such as the weight-gain method, where oil samples are stored at elevated temperatures and oxygen atmosphere. The weight increase due to oxygen absorption is measured and plotted against time. At a certain time, depending on the oils resistance to oxidation, weight increase will be rapid, and the time before this happens is noted as the oils induction time (IP).
0.083 moles of amine/amide was added to 95 g of a fish oil, which was progressively heated to 90° C. (A series) or 140° C. (B series) during agitation to dissolve the substances in the oil. After 30 minutes at this temperature, the oil was cooled and filtered.
Three 3-g samples of filtered untreated oil, and three 3-g samples of filtered oil from each of the treatments described in table 1, were placed in identical petri dishes (60 mm, with loose fitting lids) and accurately weighed. The petri dishes were placed in an oven at about 35° C., and the weight increase related to oxygen uptake (oxidation) was recorded by weighing 3 times/week.
The results given in FIG. 4 and in FIG. 5 indicates large differences in stability as measured by induction periods (IP; i.e. the time before rapid oxygen uptake), ranging from 17 days (oils heated to 90° C. or 140° C. without any substance added) and 19 days (untreated oil), to 95 days (oils treated with hexylamine at 90° C., or allylurea at 140° C., or N,N′-dimethylurea at 140° C.).

[2] = solubility in oil; assay type: physicochemical; conditions: ambient temperature
[3] = fish oil treated with 0.083 moles per 95 g oil at 140° C. for 30 minutes

With `CCCCCCN` [A3, Hexylamine] the “stability in prolonged storage” value ([1]; fish oil treated at 90° C., experiment continued for another 70 days, about 35° C.) was “still were stable” and the “induction period (IP; time before rapid oxygen uptake)” value (“induction period” below) ([1]; fish oil treated with 0.083 moles per 95 g oil at 90° C. for 30 minutes) was 95 days.
With `CNC(=O)NC` [B4, N,N′-dimethylurea] the “day of rapid weight increase, prolonged storage” value ([1]; fish oil treated at 140° C., experiment continued for another 70 days, about 35° C.) was 135 days and the “induction period” value [1, 3] was 95 days.
For `C=CCNC(N)=O` [allylurea, Allylurea], the “induction period” value [1, 3] was 95 days.
With `NC(N)=O` [urea] the solubility in oil [2] was “approx. 1 g per kg oil”.
